Experiment [1] concerns the target recombinant poly(ADP-ribose) polymerase 2 (PARP2). The experiment in a line: PARP2 chemiluminescent assay. In kind it is biochemical. Particulars: inhibition of PARP2 enzyme activity, chemiluminescence.
A further experiment concerns MDA-MB-436 cells. Nature of the experiment: Growth inhibition assay against BRCA mutant human breast cancer MDA-MB-436 cell line (CCK-8). The note with it: Homo sapiens, MDA-MB-436, […], proliferation of MDA-MB-436 cells, 7 days. Type of experiment: cell-based.
A further experiment has as its target PDE3A (Homo sapiens (Human), UniProt Q14432). Nature of the experiment: PDE3A fluorescence polarization (FP) assay. Type of experiment: biochemical. The note with it: PDE3A enzyme activity, FAM-cAMP substrate.
Experiment [2] deals with recombinant poly(ADP-ribose) polymerase 1 (PARP1) (Homo sapiens (Human), UniProt P09874).
Sequence of recombinant poly(ADP-ribose) polymerase 1 (PARP1) (P09874 whole entry): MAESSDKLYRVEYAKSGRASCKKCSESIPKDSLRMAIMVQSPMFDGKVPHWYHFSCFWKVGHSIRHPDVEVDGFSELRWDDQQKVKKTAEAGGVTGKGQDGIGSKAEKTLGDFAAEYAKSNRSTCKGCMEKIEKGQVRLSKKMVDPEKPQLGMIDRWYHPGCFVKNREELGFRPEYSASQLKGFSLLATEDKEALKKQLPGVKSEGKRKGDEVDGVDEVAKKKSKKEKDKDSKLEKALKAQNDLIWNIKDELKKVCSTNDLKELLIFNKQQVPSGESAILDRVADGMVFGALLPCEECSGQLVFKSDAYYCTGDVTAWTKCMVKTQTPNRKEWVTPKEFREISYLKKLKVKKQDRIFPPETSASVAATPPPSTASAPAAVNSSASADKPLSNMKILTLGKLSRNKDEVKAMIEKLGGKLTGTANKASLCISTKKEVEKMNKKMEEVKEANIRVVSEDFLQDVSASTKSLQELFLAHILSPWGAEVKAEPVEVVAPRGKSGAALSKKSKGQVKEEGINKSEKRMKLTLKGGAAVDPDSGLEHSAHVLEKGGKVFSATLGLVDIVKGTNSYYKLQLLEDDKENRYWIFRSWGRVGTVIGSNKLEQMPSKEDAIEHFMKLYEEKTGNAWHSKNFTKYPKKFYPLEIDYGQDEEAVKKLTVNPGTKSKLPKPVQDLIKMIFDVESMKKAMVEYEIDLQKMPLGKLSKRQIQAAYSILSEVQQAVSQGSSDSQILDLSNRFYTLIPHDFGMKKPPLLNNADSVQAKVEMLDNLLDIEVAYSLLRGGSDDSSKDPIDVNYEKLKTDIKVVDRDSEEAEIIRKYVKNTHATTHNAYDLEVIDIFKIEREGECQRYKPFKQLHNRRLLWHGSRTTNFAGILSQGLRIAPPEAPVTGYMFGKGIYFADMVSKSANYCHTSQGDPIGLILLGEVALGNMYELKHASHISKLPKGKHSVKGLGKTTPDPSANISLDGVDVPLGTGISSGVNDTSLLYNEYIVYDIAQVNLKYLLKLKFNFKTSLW

Sequence of PDE3A (Q14432 whole entry): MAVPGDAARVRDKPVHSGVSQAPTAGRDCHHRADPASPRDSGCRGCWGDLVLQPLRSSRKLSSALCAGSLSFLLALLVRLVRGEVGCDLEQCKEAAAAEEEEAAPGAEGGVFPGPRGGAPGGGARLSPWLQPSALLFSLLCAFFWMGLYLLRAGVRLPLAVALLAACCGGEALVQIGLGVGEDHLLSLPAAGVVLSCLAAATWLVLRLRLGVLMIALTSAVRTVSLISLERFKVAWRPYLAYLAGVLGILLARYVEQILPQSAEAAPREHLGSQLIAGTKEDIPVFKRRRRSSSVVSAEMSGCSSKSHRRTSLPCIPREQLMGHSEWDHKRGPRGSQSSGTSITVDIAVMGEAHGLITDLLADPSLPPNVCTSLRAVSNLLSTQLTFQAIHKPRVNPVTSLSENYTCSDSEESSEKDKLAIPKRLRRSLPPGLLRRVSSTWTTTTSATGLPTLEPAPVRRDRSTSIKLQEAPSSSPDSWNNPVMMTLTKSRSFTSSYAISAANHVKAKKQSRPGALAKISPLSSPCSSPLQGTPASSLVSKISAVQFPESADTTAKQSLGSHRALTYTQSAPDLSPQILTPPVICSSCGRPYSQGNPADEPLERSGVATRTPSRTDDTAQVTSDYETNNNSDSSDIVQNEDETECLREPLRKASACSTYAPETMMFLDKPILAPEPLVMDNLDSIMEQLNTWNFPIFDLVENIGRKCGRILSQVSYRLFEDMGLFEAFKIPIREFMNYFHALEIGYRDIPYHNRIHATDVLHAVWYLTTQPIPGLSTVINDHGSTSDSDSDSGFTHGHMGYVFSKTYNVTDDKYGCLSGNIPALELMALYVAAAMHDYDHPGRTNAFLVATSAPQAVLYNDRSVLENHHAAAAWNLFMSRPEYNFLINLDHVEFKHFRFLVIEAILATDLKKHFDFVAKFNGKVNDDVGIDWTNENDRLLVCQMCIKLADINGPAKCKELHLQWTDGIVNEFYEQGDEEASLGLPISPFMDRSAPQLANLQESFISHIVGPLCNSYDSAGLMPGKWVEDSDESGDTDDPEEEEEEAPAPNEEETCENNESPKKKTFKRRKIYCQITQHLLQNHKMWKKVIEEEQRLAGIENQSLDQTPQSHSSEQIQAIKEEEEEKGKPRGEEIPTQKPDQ
Description for PDE3A: A PDE3A fluorescence polarization (FP) assay in a multi-step format was performed using black, round bottom 384-well plates (Corning, 4514). The testing compounds were serially diluted from stock solutions to 11 concentrations with a 3-fold dilution factor using DMSO. Fifty nl of compound dilutions was mixed with 5 μl of reaction buffer (10 mM Tris-HCl, pH 7.2, 10 mM MgCl2, 0.05% NaN3, 0.1% phosphate-free BSA) containing 0.2 μM FAM-cAMP (BPS, 60200) and 2 nM PDE3A (Sino Biological, 11908-H20B1) enzyme, and incubated for 60 min at 25° C. Afterwards, 15 μl binding agent mixture (Molecular Devices, R8124) was added to each well and the plate was incubated for 60 min at 25° C. The plate was loaded to a BMG PHERAstar FSX to read Fluorescence Polarization (FP) values at a setting of: Ex: 485 nm and Em: 520 nm. Emission light intensity with polarizers parallel (Emi) and emission light intensity with polarizers perpendicular (Emi) were recorded. The Polarization (mP) values were calculated using the following formula: mP=(SignalEml−SignalEm⊥)/(SignalEml+SignalEm⊥).
• 1) The inhibition % of a compound dose is calculated as:
[formula] • wherein mPMin and mPMax refer to the polarization readings in the condition of substrate only and substrate+enzyme, respectively. • 2) The IC50 values were calculated from non-linear curve fitting using following regression equation using a commercial curve fitting software GraphPad Prism 9.2.0.
[formula] • wherein, X refers to Log of compound concentration and Y refers to % Inhibition.

As for `Cc1cnn2c1c(=O)[nH]c1c(F)c(CN3CCN(c4ccc(C(=O)NCC(F)F)nc4F)CC3)ccc12` [Example 129, 7-((4-(2-fluoro-6-(2,2-difluoroethylcarbamoyl)pyridin-3-yl)piperazin-1-yl)methyl)-6-fluoro-3-methylpyrazolo[1,5-a]quinoxalin-4(5H)-one], the IC50 in experiment [1] is over 10000 nM; with MDA-MB-436 cells, 5.02 nM; at PDE3A it was over 30000 nM; in experiment [2] it was 0.5 nM.
For `CNC(=O)c1ccc(N2CCN(Cc3ccc4c([nH]c(=O)c5ccoc54)c3F)CC2)c(C)n1` [Example 43, 7-((4-(2-methyl-6-(methylcarbamoyl)pyridin-3-yl)piperazin-1-yl)methyl)-6-fluoro-furo[3,2-c]quinolin-4(5H)-one] the same measures were 5580 nM, 5.86 nM, 8570 nM and 0.39 nM.
`CNC(=O)c1ccc(N2CCN(Cc3ccc4c(c3)[nH]c(=O)c3occc34)CC2)c(C)n1` [Example 2, 7-((4-(2-methyl-6-(methylcarbamoyl)pyridin-3-yl)piperazin-1-yl)methyl)furo[2,3-c]quinolin-4(5H)-one] registered a half-inhibitory concentration (IC50) against PDE3A of 1460 nM.
For `CNC(=O)c1ccc(N2CCN(Cc3ccc4c([nH]c(=O)n5c(C)cnc45)c3F)CC2)c(F)n1` [Example 141, 8-((4-(2-fluoro-6-(methylcarbamoyl)pyridin-3-yl)piperazin-1-yl)methyl)-3-methyl-7-fluoroimidazo[1,2-c]quinazolin-5(6H)-one], the IC50 is 1890 nM in experiment [1], 24.6 nM in the experiment with MDA-MB-436 cells, over 25000 nM at PDE3A and 1.29 nM in experiment [2].
On the same counts, the results for `CNC(=O)c1ccc(N2CCN(Cc3ccc4c([nH]c(=O)n5cc(C)nc45)c3F)CC2)c(F)n1` [Example 140, 8-((4-(2-fluoro-6-(methylcarbamoyl)pyridin-3-yl)piperazin-1-yl)methyl)-2-methyl-7-fluoroimidazo[1,2-c]quinazolin-5(6H)-one] are 1250 nM, 2.24 nM, 28900 nM and 0.84 nM.
For `CNC(=O)c1ccc(N2CCN(Cc3cc4[nH]c(=O)c5occc5c4cc3F)CC2)c(F)n1` [Example 102, 7-((4-(2-fluoro-6-(methylcarbamoyl)pyridin-3-yl)piperazin-1-yl)methyl)-8-fluorofuro[2,3-c]quinolin-4(5H)-one] the same measures were 1330 nM, 5.5 nM, over 30000 nM and 1.89 nM.
For `CNC(=O)c1ccc(N2CCN(Cc3ccc4c([nH]c(=O)c5c(C(F)(F)F)cnn54)c3F)CC2)c(F)n1` [Example 179, 7-((4-(2-fluoro-6-(methylcarbamoyl)pyridin-3-yl)piperazin-1-yl)methyl)-3-trifluoromethyl-6-fluoropyrazolo[1,5-a]quinoxalin-4(5H)-one] the same measures were 67.1 nM, 4.49 nM, over 30000 nM and 0.5 nM.
On to `CNC(=O)c1ccc(N2CCN(Cc3ccc4c(c3)[nH]c(=O)c3occc34)CC2)c(F)n1` [Example 112, 7-((4-(2-fluoro-6-(methylcarbamoyl)pyridin-3-yl)piperazin-1-yl)methyl)furo[2,3-c]quinolin-4(5H)-one], for which the IC50 turned out to be 158 nM in experiment [1], 0.58 nM in the experiment with MDA-MB-436 cells, 1300 nM at PDE3A and 0.26 nM in experiment [2].
For `CCNC(=O)c1ccc(N2CCN(Cc3ccc4c([nH]c(=O)c5occc54)c3F)CC2)c(F)n1` [Example 66, 7-((4-(2-fluoro-6-(ethylcarbamoyl)pyridin-3-yl)piperazin-1-yl)methyl)-6-fluorofuro[2,3-c]quinolin-4(5H)-one] the same measures were 5000 nM, 3.4 nM, 16600 nM and 1.72 nM.
On the same counts, the results for `CNC(=O)c1ccc(N2CCN(Cc3ccc4c([nH]c(=O)c5ccoc54)c3F)CC2)c(F)n1` [Example 44, 7-((4-(2-fluoro-6-(methylcarbamoyl)pyridin-3-yl)piperazin-1-yl)methyl)-6-fluoro-furo[3,2-c]quinolin-4(5H)-one] are 898 nM, 3.85 nM, 16500 nM and 0.41 nM.
On the same counts, the results for `O=C(NC1CC1)c1ccc(N2CCN(Cc3ccc4c([nH]c(=O)c5c(F)cnn54)c3F)CC2)c(F)n1` [Example 181, 7-((4-(2-fluoro-6-(cyclopropylcarbamoyl)pyridin-3-yl)piperazin-1-yl)methyl)-3,6-difluoropyrazolo[1,5-a]quinoxalin-4(5H)-one] are 315 nM, 1.9 nM, over 30000 nM and 0.23 nM.
As to `CNC(=O)c1ccc(N2CCN(Cc3ccc4c([nH]c(=O)c5nn(C)cc54)c3F)CC2)c(F)n1` [Example 93, 6-fluoro-7-((4-(2-fluoro-6-(methylcarbamoyl)pyridin-3-yl)piperazin-1-yl)methyl)-2-methyl-2,5-dihydro-4H-pyrazolo[3,4-c]quinolin-4-one], the values for the half-inhibitory concentration (IC50) in the experiment with MDA-MB-436 cells and against PDE3A were 3.76 nM and over 30000 nM, respectively.
For `CNC(=O)c1ccc(N2CCN(Cc3cc(F)c4c(c3)[nH]c(=O)c3occc34)CC2)c(C)n1` [Example 40, 9-fluoro-7-((4-(2-methyl-6-(methylcarbamoyl)pyridin-3-yl)piperazin-1-yl)methyl)furo[2,3-c]quinolin-4(5H)-one] the same measures were 2.48 nM and 690 nM.
For `CNC(=O)c1ccc(N2CCN(Cc3ccc4c([nH]c(=O)c5c(F)cnn54)c3Cl)CC2)c(F)n1` [Example 192, 3-fluoro-7-((4-(2-fluoro-6-(methylcarbamoyl)pyridin-3-yl)piperazin-1-yl)methyl)-6-chloropyrazolo[1,5-a]quinoxalin-4(5H)-one] the same measures were 5.58 nM and over 30000 nM.
As to `CNC(=O)c1ccc(N2CCN(Cc3ccc4c([nH]c(=O)c5c(Cl)cnn54)c3F)CC2)c(F)n1` [Example 60, 7-((4-(2-fluoro-6-(methylcarbamoyl)pyridin-3-yl)piperazin-1-yl)methyl)-6-fluoro-3-chloro-pyrazolo[1,5-a]quinoxalin-4(5H)-one], the values for the IC50 in the experiment with MDA-MB-436 cells and on PDE3A were 1.41 nM and over 30000 nM, respectively.
In turn, `CNC(=O)c1ccc(N2CCN(Cc3ccc4c(c3)[nH]c(=O)c3ccoc34)CC2)c(C)n1` [Example 6, 7-((4-(2-methyl-6-(methylcarbamoyl)pyridin-3-yl)piperazin-1-yl)methyl)furo[3,2-c]quinolin-4(5H)-one] returned an IC50 against PDE3A of 580 nM.
On to `CNC(=O)c1ccc(N2CCN(Cc3ccc4c([nH]c(=O)c5c(C)cnn54)c3F)CC2)c(Cl)n1` [Example 131, 7-((4-(2-chloro-6-(methylcarbamoyl)pyridin-3-yl)piperazin-1-yl)methyl)-6-fluoro-3-methylpyrazolo[1,5-a]quinoxalin-4(5H)-one], for which the half-maximal inhibitory concentration (IC50) in the experiment with MDA-MB-436 cells was 3.12 nM; on PDE3A, over 30000 nM.
On the same counts, the results for `CNC(=O)c1ccc(N2CCN(Cc3ccc4c(c3)[nH]c(=O)c3c(F)cnn34)CC2)c(F)n1` [Example 49, 7-((4-(2-fluoro-6-(methylcarbamoyl)pyridin-3-yl)piperazin-1-yl)methyl)-3-fluoropyrazolo[1,5-a]quinoxalin-4(5H)-one] are 1.04 nM and 880 nM.
On the same counts, the results for `[2H]C([2H])([2H])NC(=O)c1ccc(N2CCN(Cc3ccc4c([nH]c(=O)c5c(C)cnn54)c3F)CC2)c(F)n1` [Example 159, 6-fluoro-7-((4-(2-fluoro-6-((methyl-d3)carbamoyl)pyridin-3-yl)piperazin-1-yl)methyl)-3-methylpyrazolo[1,5-a]quinoxalin-4(5H)-one] are 3.91 nM and over 30000 nM.
For `O=C(NC1CC1)c1ccc(N2CCN(Cc3ccc4c([nH]c(=O)c5occc54)c3F)CC2)c(F)n1` [Example 67, 7-((4-(2-fluoro-6-(cyclopropylcarbamoyl)pyridin-3-yl)piperazin-1-yl)methyl)-6-fluorofuro[2,3-c]quinolin-4(5H)-one], the IC50 in the experiment with MDA-MB-436 cells is 6.56 nM; against PDE3A it was 13900 nM.
As for `CNC(=O)c1ccc(N2CCN(Cc3ccc4c(c3)[nH]c(=O)c3ccoc34)CC2)cn1` [Example 118, 7-((4-(6-(methylcarbamoyl)pyridin-3-yl)piperazin-1-yl)methyl)furo[3,2-c]quinolin-4(5H)-one], the IC50 in experiment [1] amounted to 273 nM; in the experiment on MDA-MB-436 cells it was 1.56 nM; in experiment [2], 0.53 nM.
`CNC(=O)c1ccc2c(n1)OC[C@H]1CN(Cc3ccc4c([nH]c(=O)c5c(C)cnn54)c3F)CCN21` [Example 167, (R)-6-fluoro-3-methyl-7-((8-methylcarbamoyl-1,2,4a,5-tetrahydropyrazino[1,2-d]pyrido[2,3-b][1,4]oxazin-3(4H)-yl)methyl)pyrazolo[1,5-a]quinoxalin-4(5H)-one]: the figures for the 50% inhibitory concentration (IC50) (in experiment [1]; with MDA-MB-436 cells; in experiment [2]) were 397 nM, 18.7 nM and 0.33 nM, respectively.
Consider `CNC(=O)c1ccc(N2CCN(Cc3ccc4c(c3)[nH]c(=O)c3nc[nH]c34)CC2)c(C)n1` [Example 25, 7-((4-(2-methyl-6-(methylcarbamoyl)pyridin-3-yl)piperazin-1-yl)methyl)-1,5-dihydro-4H-imidazo[4,5-c]quinolin-4-one], for which the values for the IC50 (in experiment [1]; in the experiment on MDA-MB-436 cells; in experiment [2]) were 2490 nM, 61.8 nM and 3.39 nM, respectively.
On the same counts, the results for `CNC(=O)c1ccc(N2CCN(Cc3ccc4c(c3)[nH]c(=O)c3[nH]ccc34)CC2)c(F)n1` [Example 99, 7-((4-(2-fluoro-6-(methylcarbamoyl)pyridin-3-yl)piperazin-1-yl)methyl)-3,5-dihydro-4H-pyrrolo[2,3-c]quinolin-4-one] are over 10000 nM, 53.8 nM and 5.94 nM.
